Test [1] has as its target T1, Aurora kinase A (Homo sapiens) (UniProt O14965).
T1 sequence (whole entry): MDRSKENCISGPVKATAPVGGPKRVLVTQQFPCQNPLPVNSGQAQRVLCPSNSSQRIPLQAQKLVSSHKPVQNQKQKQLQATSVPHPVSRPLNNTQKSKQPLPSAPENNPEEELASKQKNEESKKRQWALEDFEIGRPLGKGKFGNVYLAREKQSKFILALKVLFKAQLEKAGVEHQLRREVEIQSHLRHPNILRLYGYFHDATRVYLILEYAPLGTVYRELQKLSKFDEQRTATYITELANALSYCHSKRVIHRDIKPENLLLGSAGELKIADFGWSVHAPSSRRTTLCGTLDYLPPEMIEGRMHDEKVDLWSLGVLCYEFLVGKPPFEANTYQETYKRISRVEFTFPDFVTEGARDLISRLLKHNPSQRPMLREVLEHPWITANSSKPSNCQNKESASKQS
Put plainly: Inhibition of human full length AurA expressed in baculovirus assessed as substrate phosphorylation using fluorescence-labelled peptides as substrate at 0.2 uM after 90 mins by microfluidic peptide phosphorylation assay.

Test [2] addresses T2, Serine/threonine-protein kinase DCLK2 (Homo sapiens) (UniProt Q8N568).
T2 sequence (whole entry): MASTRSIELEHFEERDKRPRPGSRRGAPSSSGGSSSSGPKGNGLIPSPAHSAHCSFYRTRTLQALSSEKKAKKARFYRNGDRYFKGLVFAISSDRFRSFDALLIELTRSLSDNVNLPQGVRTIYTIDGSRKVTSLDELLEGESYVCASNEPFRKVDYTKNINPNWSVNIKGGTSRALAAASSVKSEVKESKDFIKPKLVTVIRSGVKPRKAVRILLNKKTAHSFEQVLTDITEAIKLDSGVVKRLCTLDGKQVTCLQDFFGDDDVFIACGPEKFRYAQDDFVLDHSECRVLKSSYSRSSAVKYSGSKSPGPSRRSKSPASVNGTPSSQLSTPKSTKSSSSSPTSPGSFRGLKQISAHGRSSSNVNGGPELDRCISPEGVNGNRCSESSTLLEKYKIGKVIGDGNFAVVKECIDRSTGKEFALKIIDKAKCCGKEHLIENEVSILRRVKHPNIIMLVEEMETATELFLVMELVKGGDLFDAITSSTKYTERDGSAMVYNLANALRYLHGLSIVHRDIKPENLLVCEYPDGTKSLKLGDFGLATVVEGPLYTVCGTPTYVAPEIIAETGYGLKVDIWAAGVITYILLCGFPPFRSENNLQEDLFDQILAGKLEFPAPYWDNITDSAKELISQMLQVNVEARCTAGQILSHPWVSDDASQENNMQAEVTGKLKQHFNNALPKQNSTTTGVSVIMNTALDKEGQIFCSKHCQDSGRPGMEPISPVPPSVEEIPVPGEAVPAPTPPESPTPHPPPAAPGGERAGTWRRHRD
In words: Inhibition of human full length DCAMKL2 expressed in baculovirus assessed as substrate phosphorylation using fluorescence-labelled peptides as substrate at 9 uM after 90 mins by microfluidic peptide phosphorylation assay.

The target in test [3] is Mitogen-activated protein kinase 14 (Homo sapiens) (UniProt Q16539). In words: Inhibition of human truncated p38 alpha expressed in Escherichia coli cell assessed as substrate phosphorylation using fluorescence-labelled peptides as substrate at 95 uM after 90 mins by microfluidic peptide phosphorylation assay.
Chain of Mitogen-activated protein kinase 14 (Homo sapiens) (Q16539 whole entry, the tested form may be a part): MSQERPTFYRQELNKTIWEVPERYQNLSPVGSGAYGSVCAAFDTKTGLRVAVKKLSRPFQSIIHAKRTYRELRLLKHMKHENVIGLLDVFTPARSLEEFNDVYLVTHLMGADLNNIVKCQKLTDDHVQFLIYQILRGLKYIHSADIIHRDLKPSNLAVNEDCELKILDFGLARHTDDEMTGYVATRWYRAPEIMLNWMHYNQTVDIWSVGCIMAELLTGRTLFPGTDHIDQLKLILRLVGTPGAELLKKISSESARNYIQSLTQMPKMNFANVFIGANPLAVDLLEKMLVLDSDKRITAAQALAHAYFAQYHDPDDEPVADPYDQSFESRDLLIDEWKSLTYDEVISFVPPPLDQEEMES
In test [4] the target is T3, Serine/threonine-protein kinase D3 (Homo sapiens) (UniProt O94806).
T3 sequence (whole entry): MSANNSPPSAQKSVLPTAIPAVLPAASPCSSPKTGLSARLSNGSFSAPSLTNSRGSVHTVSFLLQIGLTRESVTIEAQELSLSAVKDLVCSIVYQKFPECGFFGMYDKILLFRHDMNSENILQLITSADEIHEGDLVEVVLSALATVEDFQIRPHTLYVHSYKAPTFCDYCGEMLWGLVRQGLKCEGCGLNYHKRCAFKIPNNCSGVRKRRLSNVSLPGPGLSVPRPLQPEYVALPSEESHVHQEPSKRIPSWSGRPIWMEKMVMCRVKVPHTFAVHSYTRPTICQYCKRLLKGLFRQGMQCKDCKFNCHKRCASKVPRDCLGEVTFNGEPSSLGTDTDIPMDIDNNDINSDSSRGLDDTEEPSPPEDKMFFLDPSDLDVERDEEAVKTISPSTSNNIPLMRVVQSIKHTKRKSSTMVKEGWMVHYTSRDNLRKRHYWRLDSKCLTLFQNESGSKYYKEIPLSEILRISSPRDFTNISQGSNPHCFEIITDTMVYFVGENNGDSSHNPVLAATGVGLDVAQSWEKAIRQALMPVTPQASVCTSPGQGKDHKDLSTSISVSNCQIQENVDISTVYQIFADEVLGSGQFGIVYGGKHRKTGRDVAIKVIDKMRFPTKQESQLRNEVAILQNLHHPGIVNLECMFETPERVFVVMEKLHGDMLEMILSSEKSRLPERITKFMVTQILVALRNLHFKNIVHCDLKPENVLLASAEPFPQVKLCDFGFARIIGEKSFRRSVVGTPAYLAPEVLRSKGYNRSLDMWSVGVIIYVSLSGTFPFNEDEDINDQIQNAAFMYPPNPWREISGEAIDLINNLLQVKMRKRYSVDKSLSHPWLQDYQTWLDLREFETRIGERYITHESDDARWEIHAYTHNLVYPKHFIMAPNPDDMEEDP
In words: Inhibition of human full length PKD3 expressed in baculovirus assessed as substrate phosphorylation using fluorescence-labelled peptides as substrate at 95 uM after 90 mins by microfluidic peptide phosphorylation assay.

The target of test [5] is Protein kinase C gamma type (Homo sapiens) (UniProt P05129). In words: Inhibition of human truncated PKC gamma expressed in baculovirus assessed as substrate phosphorylation using fluorescence-labelled peptides as substrate at 70 uM after 90 mins by microfluidic peptide phosphorylation assay.
Test [6] has as its target Proto-oncogene tyrosine-protein kinase Src (Homo sapiens) (UniProt P12931). Put plainly: Inhibition of human full length SRC expressed in baculovirus assessed as substrate phosphorylation using fluorescence-labelled peptides as substrate at 70 uM after 90 mins by microfluidic peptide phosphorylation assay.

Molecules are shown by their SMILES.

Chain of Proto-oncogene tyrosine-protein kinase Src (Homo sapiens) (P12931 2-536 limits assumed): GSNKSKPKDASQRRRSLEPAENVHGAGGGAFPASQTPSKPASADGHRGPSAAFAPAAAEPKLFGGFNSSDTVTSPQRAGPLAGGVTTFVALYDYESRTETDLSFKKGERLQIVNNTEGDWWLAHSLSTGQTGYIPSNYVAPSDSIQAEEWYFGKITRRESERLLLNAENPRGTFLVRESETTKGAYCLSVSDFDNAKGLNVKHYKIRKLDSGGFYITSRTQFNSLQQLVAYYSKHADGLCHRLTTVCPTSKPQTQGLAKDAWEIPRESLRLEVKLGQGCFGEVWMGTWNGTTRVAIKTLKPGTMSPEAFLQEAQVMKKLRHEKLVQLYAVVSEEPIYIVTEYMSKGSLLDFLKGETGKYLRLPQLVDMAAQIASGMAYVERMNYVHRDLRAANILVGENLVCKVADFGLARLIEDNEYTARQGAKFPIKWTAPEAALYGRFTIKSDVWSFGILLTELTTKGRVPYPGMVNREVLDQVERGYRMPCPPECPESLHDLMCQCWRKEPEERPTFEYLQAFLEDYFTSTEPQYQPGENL

Consider `Clc1ccc(C2(c3ccc(-c4ncnc5[nH]cnc45)cc3)CCNCC2)cc1`, for which, in test [1], the inhibition came out at 49%.

As to `NCC1CN(c2ncnc3[nH]c4cnccc4c23)CCO1` (stereo unspecified), in test [2], the inhibition turned out to be 3%.

With `NCCc1ccc(-c2ncnc3[nH]cnc23)cc1`, the inhibition in test [3] is 6.5%; in test [4], 61.5%.

As for `CNCc1ccc(-c2ncnc3[nH]cnc23)cc1`, the inhibition in test [5] is 64%; in test [6], 37.5%.

The term inhibition denotes how much of the control response was suppressed.

(Values after ChEMBL document CHEMBL3132769, “Fragment growing to retain or alter the selectivity of anchored kinase hinge-binding fragments” (Medchemcomm, 2014).)
